We go through 20 molecules from patent publication US10179125B2, “Substituted pyridines as bromodomain inhibitors” (Zenith Epigenetics Ltd., priority 2014, dated 2019).

pIC50: −log10 of the molar value.

For experiment [1], the target named is T1, Brd4 bromodomain 1 (BRD4(1)) (Homo sapiens, UniProt O60885).
T1 construct: made in house; host or cells: E. coli BL21(DE3)
Kind of experiment: Inhibition of tetra-acetylated histone H4 binding to BET bromodomain (HTRF/FRET). To be noted: His-tagged bromodomain 200 nM, biotinylated tetra-acetylated histone H4 peptide, 2 h room temperature. The protocol: Proteins were cloned and overexpressed with a N-terminal 6×His tag, then purified by nickel affinity followed by size exclusion chromatography. Briefly, E. coli BL21(DE3) cells were transformed with a recombinant expression vector encoding N-terminally Nickel affinity tagged bromodomains from Brd2, Brd3, Brd4. Cell cultures were incubated at 37° C. with shaking to the appropriate density and induced overnight with IPTG. The supernatant of lysed cells was loaded onto Ni-IDA column for purification, Eluted protein was pooled, concentrated and further purified by size exclusion chromatography. Fractions representing monomeric protein were pooled, concentrated, aliquoted, and frozen at −80° C. for use in subsequent experiments.
Binding of tetra-acetylated histone H4 and BET bromodomains was confirmed by a Homogenous Time Resolved Fluorescence Resonance Energy Transfer (HTRF®) method, N-terminally His-tagged bromodomains (200 nM) and biotinylated tetra-acetylated histone H4 peptide (25-50 nM, Millipore) were incubated in the presence of Europium Cryptate-labeled streptavidin (Cisbio Cat, #610SAKLB) and XL665-labeled monoclonal anti-His antibody (Cisbio Cat.1461HISXLB) in a white 96 well microtiter plate (Greiner). For inhibition assays, serially diluted test compound was added to these reactions in a 0.2% final concentration of DMSO. Duplicate wells were used for each concentration tested. Final buffer concentrations were 30 mM HEPES pH 7.4, 30 mM NaCl, 0.3 mM CHAPS, 20 mM phosphate pH 7.0, 320 mM KF, 0.08% BSA. After a 2 h incubation at room temperature, fluorescence was measured at 665 and 620 nm with a SynergyH4 plate reader (Biotek). The binding inhibitory activity was shown by a decrease in […] relative to 620 nm fluorescence. IC50 values were determined from a dose response curve.
(Time-resolved FRET reads energy transfer from a long-lived donor to a nearby acceptor.)

Experiment [2] deals with cMYC. Kind of experiment: Inhibition of cMYC expression in MV4-11 cells (real-time PCR). To be noted: 3 h, cMYC mRNA; for pIC50: Homo sapiens, read-out: c-myc activity. The experiment is classed as cell-based, Human. The protocol: MV4-11 cells (CRL-9591) were plated at a density of 2.5×10^4 cells per well in 96 well U-bottom plates and treated with increasing concentrations of test compound or DMSO (0.1%) in IMDM media containing 10% FBS and penicillin/streptomycin, and incubated for 3 h at 37° C. Triplicate wells were used for each concentration. Cells were pelleted by centrifugation and harvested using the mRNA Catcher PLUS kit according to manufacturer's instructions. The eluted mRNA isolated was then used in a one-step quantitative real-time PCR reaction, using components of the RNA UltraSense™ One-Step Kit (Life Technologies) together with Applied Biosystems TaqMan® primer-probes for cMYC and Cyclophilin, Real-time PCR plates were run on a ViiA™7 real time PCR machine (Applied Biosystems), data was analyzed, normalizing the Ct values for cMYC to an internal control, prior to determining the fold expression of each sample, relative to the control.

Experiment [3] concerns Human AML MV-4-11 cells. Kind of experiment: Inhibition of cell proliferation in MV4-11 cells (CellTiter Aqueous One). The experiment is classed as cell-based. To be noted: 72 h; for pIC50: Homo sapiens. The protocol:
MV4-11 cells (CRL-9591) were plated at a density of 5×10^4 cells per well in 96 well flat bottom plates and treated with increasing concentrations of test compound or DMSO (0.1%) in IMDM media containing 10% FBS and penicillin/streptomycin. Triplicate wells were used for each concentration and a well containing only media was used as a control. Plates were incubated at 37° C., 5% CO2 for 72 h before adding 20 μL of the CellTiter Aqueous One Solution (Promega) to each well and incubated at 37° C., 5% CO2 for an additional 3-4 h. The absorbance was read at 490 nm in a spectrophotometer and the percentage of cell titer relative to DMSO-treated cells was calculated after correcting for background by subtracting the blank well's signal. IC50 values were calculated using the GraphPad Prism software.

Experiment [4] deals with hIL-6. Nature of the experiment: Inhibition of hIL-6 mRNA transcription in LPS-stimulated U937 cells. The experiment is classed as cell-based, Human. To be noted: Homo sapiens, U-937, PMA-differentiated U937 cells, 1 h pretreatment, LPS 3 h, read-out: IL-6 activity. The protocol:
Human leukemic monocyte lymphoma U937 cells (CRL-1593.2) were plated at a density of 3.2×10^4 cells per well in a 96-well plate in 100 μL RPMI-1640 containing 10% FBS and penicillin/streptomycin, and differentiated into macrophages for 3 days in 60 ng/mL PMA ([…]) at 37° C. in 5% CO2 prior to the addition of compound. The cells were pretreated for 1 h with increasing concentrations of test compound in 0.1% DMSO prior to stimulation with 1 ug/mL lipopolysaccharide from Escherichia coli. Triplicate wells were used for each concentration. The cells were incubated at 37° C., 5% CO2 for 3 h before the cells were harvested. At time of harvest, media was removed and cells were rinsed in 200 μL PBS. Cells were harvested using the mRNA Catcher PLUS kit according to manufacturer's instructions. The eluted mRNA was then used in a one-step quantitative real-time PCR reaction using components of the RNA UltraSense™ One-Step Kit (Life Technologies) together with Applied Biosystems TaqMan® primer-probes for hIL-6 and Cyclophilin. Real-time PCR plates were run on a ViiA™7 real time PCR machine (Applied Biosystems), data was analyzed, normalizing the Ct values for hIL-6 to an internal control, prior to determining the fold expression of each sample, relative to the control.

As to `Cc1noc(C)c1-c1cnc(Oc2ccccc2)c(NCc2ccccn2)c1` [Example 51, 5-(3,5-dimethylisoxazol-4-yl)-2-phenoxy-N-(pyridin-2-ylmethyl)pyridin-3-amine], the pIC50 was not below 6.52 in experiment [1], 5.52 to 6.52 in experiment [2], 4.52 to 5.52 in experiment [3] and 5.52 to 6.52 in experiment [4].
`COc1ncc(-c2c(C)noc2C)cc1-c1c(C)noc1C` [Example 34, 4,4′-(2-methoxypyridine-3,5-diyl)bis(3,5-dimethylisoxazole)]: the pIC50 in experiment [1] was not below 6.52; in experiment [2], 4.52 to 5.52; in experiment [4], 4.52 to 5.52.
With `COc1ncc(-c2c(C)noc2C)cc1Oc1cc(C(N)=O)ccc1C` [Example 67, 3-((5-(3,5-dimethylisoxazol-4-yl)-2-methoxypyridin-3-yl)oxy)-4-methylbenzamide], the pIC50 in experiment [1] is not below 6.52; in experiment [2] it was 5.52 to 6.52; in experiment [3], 4.52 to 5.52; in experiment [4], 5.52 to 6.52.
For the molecule `COc1ncc(-c2c(C)noc2C)cc1Nc1ccccc1F` [Example 18, 5-(3,5-dimethylisoxazol-4-yl)-N-(2-fluorophenyl)-2-methoxypyridin-3-amine], the pIC50 is not below 6.52 in experiment [1], 4.52 to 5.52 in experiment [2], 4.52 to 5.52 in experiment [3] and 5.52 to 6.52 in experiment [4].
On to `COc1ncc(-c2c(C)noc2C)cc1NCc1cccnc1` [Example 33, 5-(3,5-dimethylisoxazol-4-yl)-2-methoxy-N-(pyridin-3-ylmethyl)pyridin-3-amine], for which the pIC50 in experiment [1] is not below 6.52; in experiment [2], 5.52 to 6.52; in experiment [3], 5.52 to 6.52; in experiment [4], 5.52 to 6.52.
Turning to `COc1ncc(-c2c(C)noc2C)cc1NC(C)c1ccccn1` (stereo not shown) [Example 24, 5-(3,5-dimethylisoxazol-4-yl)-2-methoxy-N-(1-(pyridin-2-yl)ethyl)pyridin-3-amine], the pIC50 is not below 6.52 in experiment [1], 5.52 to 6.52 in experiment [2], 5.52 to 6.52 in experiment [3] and 5.52 to 6.52 in experiment [4].
As to `COc1ncc(-c2c(C)noc2C)cc1Nc1cccnc1C` [Example 59, 5-(3,5-dimethylisoxazol-4-yl)-2-methoxy-N-(2-methylpyridin-3-yl)pyridin-3-amine], the pIC50 is not below 6.52 in experiment [1], 5.52 to 6.52 in experiment [2], 4.52 to 5.52 in experiment [3] and 5.52 to 6.52 in experiment [4].
As for `COc1ncc(-c2c(C)noc2C)cc1NCc1ccc(C(F)(F)F)cc1` [Example 16, 5-(3,5-dimethylisoxazol-4-yl)-2-methoxy-N-(4-(trifluoromethyl)benzyl)pyridin-3-amine], in experiment [1], the pIC50 is 5.52 to 6.52.
With `COc1ncc(-c2c(C)noc2C)cc1OCc1ccc(C#N)cc1` [Example 30, 4-(((5-(3,5-dimethylisoxazol-4-yl)-2-methoxypyridin-3-yl)oxy)methyl)benzonitrile], the pIC50 is not below 6.52 in experiment [1], 4.52 to 5.52 in experiment [3] and 4.52 to 5.52 in experiment [4]. The c-myc activity result in experiment [2] is reported as “Not Active”.
Regarding `COc1ncc(-c2c(C)noc2C)cc1Nc1ccc(F)cc1` [Example 19, 5-(3,5-dimethylisoxazol-4-yl)-N-(4-fluorophenyl)-2-methoxypyridin-3-amine], the pIC50 in experiment [1] is not below 6.52; in experiment [2] it was 5.52 to 6.52; in experiment [3] it was 5.52 to 6.52; in experiment [4], 5.52 to 6.52.
In the case of `COc1ncc(-c2c(C)noc2C)cc1NCc1ccccn1` [Example 21, 5-(3,5-dimethylisoxazol-4-yl)-2-methoxy-N-(pyridin-2-ylmethyl)pyridin-3-amine], the pIC50 was not below 6.52 in experiment [1], 5.52 to 6.52 in experiment [2], 5.52 to 6.52 in experiment [3] and 5.52 to 6.52 in experiment [4].
As for `COc1ncc(-c2c(C)noc2C)cc1NCc1ncccc1Cl` [Example 49, N-((3-chloropyridin-2-yl)methyl)-5-(3,5-dimethylisoxazol-4-yl)-2-methoxypyridin-3-amine], the pIC50 in experiment [1] is not below 6.52. The “Cell Proliferation activity” value in experiment [3] is given as “Not Active”.
As to `CNc1ncc(-c2c(C)noc2C)cc1Nc1cccnc1C` [Example 69, 5-(3,5-Dimethylisoxazol-4-yl)-N2-methyl-N3-(2-methylpyridin-3-yl)pyridine-2,3-diamine], the pIC50 in experiment [1] is 5.52 to 6.52.
With `COc1ncc(-c2c(C)noc2C)cc1NCc1ncccn1` [Example 48, 5-(3,5-dimethylisoxazol-4-yl)-2-methoxy-N-(pyrimidin-2-ylmethyl)pyridin-3-amine], the pIC50 in experiment [1] is not below 6.52; in experiment [3], 4.52 to 5.52; in experiment [4], 5.52 to 6.52.
With `COc1ncc(-c2c(C)noc2C)cc1Oc1cccnc1` [Example 15, 4-(6-methoxy-5-(pyridin-3-yloxy)pyridin-3-yl)-3,5-dimethylisoxazole], the pIC50 in experiment [1] is 4.52 to 5.52.
Regarding `Cc1noc(C)c1-c1cnc(OCc2ccccc2)c(NCc2ccccc2)c1` [Example 25, N-benzyl-2-(benzyloxy)-5-(3,5-dimethylisoxazol-4-yl)pyridin-3-amine], the pIC50 was 5.52 to 6.52 in experiment [1] and 4.52 to 5.52 in experiment [3].
For `COc1ncc(-c2c(C)noc2C)cc1Nc1cccc(C)c1` [Example 7, 5-(3,5-dimethylisoxazol-4-yl)-2-methoxy-N-(m-tolyl)pyridin-3-amine], the values for the pIC50 in experiment [1], in experiment [3] and in experiment [4] were not below 6.52, 4.52 to 5.52 and 5.52 to 6.52, respectively.
In the case of `COc1ncc(-c2c(C)noc2C)cc1NC(C)c1ccc(Cl)cc1` (stereo not shown) [Example 22, N-(1-(4-chlorophenyl)ethyl)-5-(3,5-dimethylisoxazol-4-yl)-2-methoxypyridin-3-amine], the pIC50 in experiment [1] was 5.52 to 6.52; in experiment [2], 4.52 to 5.52; in experiment [3], 4.52 to 5.52.
With `COc1ncc(-c2c(C)noc2C)cc1NCc1ccc(Br)cc1` [Example 23, N-(4-bromobenzyl)-5-(3,5-dimethylisoxazol-4-yl)-2-methoxypyridin-3-amine], the figures for the pIC50 in experiment [1], in experiment [2] and in experiment [3] were 5.52 to 6.52, 4.52 to 5.52 and 4.52 to 5.52, respectively.
As to `COc1cccc(Nc2cc(-c3c(C)noc3C)cnc2OC)c1` [Example 13, 5-(3,5-dimethylisoxazol-4-yl)-2-methoxy-N-(3-methoxyphenyl)pyridin-3-amine], the results for the pIC50 in experiment [1], in experiment [3] and in experiment [4] were not below 6.52, 5.52 to 6.52 and 5.52 to 6.52, respectively.
